From patent US7863326B2, “Pharmaceutical compositions comprising ascorbic acid for the treatment of fungal superinfections and fungal recurrences” (Polichem S.A., priority 2003, dated 2011)

Legend:
[1] = tested on: Candida; assay: Randomized double-blind placebo-controlled study of preventing Candida superinfection after standard metronidazole treatment; format: in vivo, patients
Procedure: Two hundred patients with a negative microbiology of their vaginal specimen after a standard metronidazole treatment have been included in a controlled study aimed at the evaluation of ascorbic acid capability to prevent Candida superinfection in those patients. The study was randomized, double blind, parallel groups versus placebo. As active treatment, a 6-day course of vaginal tablets, containing 250 mg silicon-coated ascorbic acid as per the Example 2, was given once monthly for 3 months starting after menses. Placebo was undistinguishable from active treatment. Ninety-five patients in the active group and 92 respectively in the placebo group terminated the study and were included in the efficacy analysis. […] The protection factor of ascorbic acid against Candida superinfection in this experiment was 40%.

[2] = tested on: experimental renal candidiasis; details: rats, orally supplemented to the diet; evident at very low dose, disappearing at a higher dose level; cited from earlier work
[3] = tested on: Candida; assay: Double-blind placebo-controlled study of preventing Candida reinfection after miconazole in women with recurrent vaginal candidiasis; format: in vivo
Text: Forty women with an exacerbation of recurrent vaginal candidiasis underwent a follow up preventative therapy with ascorbic acid. Most important inclusion criteria were: adult women in fertile age (18-50); ≧3 episodes of acute vaginal candidiasis in the last 12 months; acute vaginal candidiasis in the last 14 days; eradication of Candida (fresh examination) after an appropriate miconazole treatment. Exclusion criteria were: severe vaginal infections; HIV positivity; diabetes; pregnant women. The design was double blind, parallel groups versus placebo.
After completion of the standard treatment with miconazole, all the responders (patients with eradication of Candida at the end of treatment) were randomized to a standardized preventative vaginal application of ascorbic acid (in form of gel, containing 7.1% ascorbic acid as the only active ingredient, same composition as per the Example 1) or to an undistinguishable placebo. The product was applied once daily in the evening, before going to bed, for 6 consecutive days. The 6-day cycle was repeated monthly for 6 consecutive months, starting on the first month immediately after patient randomization; during the following 5 months, the therapeutic cycle with ascorbic acid was started on the day after termination of cyclic menses. Primary endpoint of the study was the occurrence of episodes of Candida reinfection, confirmed by fresh examination of the vaginal smear. In case of reinfection, this was treated with a further standard miconazole treatment and the follow up with ascorbic acid was continued immediately after confirmation of microbiological eradication. All patients in the ascorbic acid group terminated the study, 2 patients of placebo group were lost to follow up. […] The protection factor of ascorbic acid against Candida reinfection was 46% in this investigation.

Compound: O=C1O[C@H]([C@@H](O)CO)C(O)=C1O [ascorbic acid, L-ascorbic acid]
- patients with Candida superinfection (percent of group) ([1]; vaginal tablets with 250 mg silicon-coated ascorbic acid, 6-day course once monthly for 3 months): 9%
- patients with Candida superinfection ([1]; vaginal tablets with 250 mg silicon-coated ascorbic acid, 6-day course once monthly for 3 months, 95 patients analysed): 9 patients
- protection factor against Candida superinfection ([1]; versus placebo, 3 months): 40%
- effect on the resistance to experimental renal candidiasis [2]: inconclusive
- episodes of reinfection ([3]; 7.1% ascorbic acid vaginal gel once daily for 6 days, cycle repeated monthly for 6 months, reinfection confirmed by fresh examination of vaginal smear): 15 episodes
- acute infection:patient rate ([3]; 7.1% ascorbic acid vaginal gel, 6-day cycles monthly for 6 months): 0.75 /6 months
- protection factor against Candida reinfection ([3]; versus placebo, 6 months): 46%
